Source: patent US12564568B2, “PKC pathway in Parkinson's Disease” (CEDARS-SINAI MEDICAL CENTER, priority 2018, dated 2026)
“Also recorded” adds a separate entry of the source.

Tests used:
[1] = In vitro blood plasma binding, human; assay type: in vitro ADME
Text: This may complicate IV delivery.

synuclein = experiment: Injection into the ventricles of WT mice, synuclein in striatum; assay type: in vivo, mouse; conditions: 0.3, 3, and 30 uM injected into ventricles of WT mice; 1 and 5 days post injection
Method: In vivo, PEP stimulates synuclein degradation. Dosage studies of 0.3, 3, and 30 uM PEP was injected into the ventricles of WT mice.

LAMP1 = LAMP1 level in day 30 mDA cultures after PEP005 (western blot); assay type: cell-based, human
[2] = Repeat dose tox study in rats; assay type: in vivo, rat; conditions: up to 10 ug/kg/day for 7 days, IV tail vein injection
Method: In a repeat dose tox study in rats—animals were given up to 10 ug/kg/day for 7 days by IV tail vein injection. […] In a repeat dose tox study in mini-pigs—animals were given up to 5 ug/kg/day IV approximately 1×/week.

α-synuclein = α-synuclein protein level in day 30 iPSC-derived mDA (DaN) cultures after drug treatment (western blot, immunostaining); assay type: cell-based, human
Method: iPSC maintenance, mDA neuron differentiation and drug treatments: iPSCs were maintained in E8 media on Matrigel and passaged every 5 days at split ratios from 1:6 to 1:12 as needed using Versene. Only iPSCs between passage 17 and passage 35 were used in this study. For differentiation, iPSCs were grown to ˜80% confluency. Cells were singularized with Accutase (Millipore/Sigma #SCR005) (5 minutes at 37° C.) and plated onto Matrigel-coated 6-well plates (BD Biosciences) at 200K cells per cm^2 (for a fully confluent monolayer) in E8 media with 5 μM Y27632 (StemGent). 24 hours after plating, media was changed to Stage 1 (50% DMEM/F12, 50% Neurobasal, N2, B27-Vitamin A, LDN-193189 (LDN), SB431542 (SB)). Stage 1 media was changed each day (3 mL per well) for 3 days. Media was next switched to Stage 2 (50% DMEM/F12, 50% Neurobasal, N2, B27-Vitamin A, LDN, SB, Purmorphamine (PMN), CHIR99021 (CHIR), Sonic hedgehog (SHH), Fibroblast Growth Factor 8 (FGF8)). Stage 2 media was changed each day (3 mL per well) for 4 days. Media was then switched to Stage 3 (50% DMEM/F12, 50% Neurobasal, N2, B27-Vitamin A, LDN, CHIR, all-trans-Retinoic acid (ATRA)). Stage 3 media was changed each day (3 mL per well) for 4 days. Finally, media was switched to Stage 4 (50% DMEM/F12, 50% Neurobasal, N2, B27+Vitamin A, Brain-Derived Neurotrophic Factor (BDNF), Glial Cell Line-Derived Neurotrophic Factor (GDNF), dibutyryl cyclic-AMP sodium salt (dbCAMP), L-Ascorbic Acid (AA), γ-Secretase inhibitor (DAPT), CHIR, Transforming Growth Factor beta-3 (TGF β3)). Stage 4 media was changed each day (3 mL per well) for 3 days. On day 15, cells were dissociated to single cells using Accutase (20 mins at 37° C.) and gently lifted. Dissociated cells were resuspended in Maturation Medium (50% DMEM/F12, 50% Neurobasal, N2, B27+Vitamin A, BDNF, GDNF, dbCAMP, AA, DAPT, TGF3) plus 5 μM Y27632 and reseeded onto Matrigel-coated 6-well plates at 200 k/cm^2 in 1 mL total volume or onto Matrigel-coated L-glass coverslips in a 24-well plate at 200 k/50 μL drop. Cells were allowed to attach for 45 mins at 37° C. and Maturation Medium was then added to final volumes of 3 mL per well for 6-well plates or 1.5 mL per well for 24-well plates with coverslips. A full medium change was performed 48-hours post-seeding and medium was changed every 3 days until day 30. For drug treatments, cells at day-27 were fed with Maturation Medium containing the indicated drug and cells were analyzed at day 30.
Immunocytochemistry and imaging: mDA neuron cultures were plated on L-glass coverslips and grown as above. Day 30 neurons were fixed in 4% PFA at room temperature for 10-15 mins. Fixed coverslips were washed in PBS and permeabilized for 10 minutes at room temperature in 1% Triton X-100 in PBS, followed by staining in primary antibody solution (5% normal donkey serum, 0.125% Triton-X, PBS) overnight at 4° C. with the following antibodies: TH (1:5000, Immunostar #22941) and α-synuclein (1:500, Abcam #ab138501). Samples were washed 3 times in PBS and stained with species-specific Alexa Fluor 488 or 594-conjugated secondary antibodies (1:500, Invitrogen) for 2 hours at room temperature, followed by DAPI counterstain. Confocal Z-stack images were acquired using a A1 microscope (Nikon) with 40× and 20× objectives and rendered using maximum intensity projection through IMARIS software (Bitplane).
Western blot: Cells were gently scraped off the plates, washed with PBS, centrifuged at 15000 RPM for 1 min, and dry pellets were frozen at −80° C. Samples were then thawed and lysed using 1×NETN buffer (20 mM Tris-HCl (pH 8.0), 100 mM NaCl, 0.5 mM EDTA and 0.5% NP-40) supplemented with phosphatase/protease inhibitor cocktail (MS-SAFE, Sigma-Aldrich). Lysates were sonicated in an automated cold bath sonicator for 20 mins using alternating 10 sec pulses followed by 10 sec rests. Samples were centrifuged for 20 min at 4° C. at 15000 RPM. Total soluble protein concentrations were measured using a Bradford assay (BIO-RAD). […]

C/C=C(/C)C(=O)O[C@H]1C(C)=C[C@]23C(=O)[C@@H](C=C(CO)[C@@H](O)[C@]12O)[C@H]1[C@@H](C[C@H]3C)C1(C)C [PEP005, ingenol-3-angelate]
plasma binding [1]: highly efficient plasma binding | synuclein in mouse striatum (synuclein): Reduction | LAMP1 protein (LAMP1; PD cells treated with PEP005): does not appear to be replicated | LAMP1 protein (LAMP1; PD cells treated with PEP005, listed as PEP): neither LAMP1 nor LC3 respond | LAMP1 protein (LAMP1; control and PD cells / all iPSC lines, 1 μM PEP005 for 3 days): increase | LAMP1 protein (LAMP1; control cells treated with PEP005): increase | tolerability [2]: well tolerated | α-synuclein levels (western blot) (α-synuclein; EOSPD/PD cultures (190iPD), treated 3 days from day 27, PEP005 1 μM, SMER-28 5 μM, Trehalose): substantially reduced | α-synuclein by immunostaining (α-synuclein; PEP005-treated mDA cultures): decreased | α-synuclein levels (western blot) (α-synuclein; both control and PD cultures / all treated lines, PEP005 1 μM, 3 days): reduced; also recorded: decrease; also recorded: rapid reduction | amount of α-synuclein protein (western blot) (α-synuclein; control line cultures (02iCTR), treated 3 days from day 27, PEP005 1 μM, SMER-28 5 μM, Trehalose): significantly reduced | α-synuclein at low PEP005 doses (α-synuclein; dose response study, low doses): robust reduction | time until α-synuclein is degraded in response to drug treatment (α-synuclein; time-course, control and PD cultures): ≤ 24 h
